{"source": "patent US20210106542A1", "about": "“COMPOSITION AND METHOD FOR INHIBITING PLATELET AGGREGATION” (priority 2015, published 2021)", "key": {"thrombin production": {"test_system": "thrombin production", "assay": "Thrombin generation test", "assay_type": "biochemical, human", "description": "Thrombin generation test, a clinical test to determine if a drug impedes blood clotting, was conducted as described below. […] The results are shown in Table 11, below, and in FIG. 5. The RQN combination decreased thrombin in a manner similar to other commonly used anti-platelet drugs, further indicating the safety of the RQN combination."}, "SAPs": {"test_system": "SAPs", "assay": "SAP reduction compared to known anti-platelet drugs", "assay_type": "cell-based, human", "description": "SAPs were analyzed in the presence of resveratrol, quercetin, and naltrexone and compared to known anti-platelet drugs. Student's t-test with Turkey Post Hoc correction was used to determine significance levels comparing untreated to drug treated samples. The appropriate doses for other anti-platelet drugs were established by routine clinical use."}, "[1]": {"details": "cited from earlier work; for Bioavailability: literature reference"}, "[2]": {"test_system": "superactivated platelets (SAPs)", "assay": "SAP inhibition by combinatorial drug treatment (flow cytometry of PRP)", "assay_type": "cell-based, human", "details": "50 μM; PRP 30 minutes at 37° C.; normalized relative to Control", "description": "A venipuncture sample of 10 mL of blood is obtained from each patient. Of the 10 mL, a 3 mL aliquot of blood is added to a tube containing 0.5 mL of acid-citrate-dextrose solution (38 mM citric acid, 75 mM sodium citrate, 135 mM glucose) to prevent clotting. […] After centrifuging at 1100 rpm for 10 minutes at room temperature, platelet rich plasma (PRP), which is the upper layer, is removed. The PRP is transferred to a new tube, leaving about 0.5 mL above the buffy coat layer. The PRP-containing tube is incubated with 10 μL of thrombin and convulxin, two agonists that activate the platelets, for five minutes. […] APC-SA recognizes superactivated platelets that more readily bind the biotinylated fibrinogen to their surface. […]\nEach sample is analyzed by a Beckman Coulter CyAn flow cytometer (Beckman Coulter, Fullerton, Calif.). Results are analyzed by the Summit program (Beckman Coulter). […] The SAPs are expressed as a percentage of the total number of events in the sample. […]\nAliquots of platelet rich plasma (PRP) were incubated with aqueous saline solutions of resveratrol only, quercetin only, naltrexone only, and with an admixture of resveratrol, quercetin and naltrexone (RQN) for a time period of 30 minutes at 37° C. […] Multi-color immunofluorescence was noted, and analyzed as described in Example 1, above."}, "[3]": {"test_system": "control subject platelets", "assay": "SAP levels at varying doses of R, Q, N alone or in combination, control subject", "assay_type": "cell-based, human", "details": "control patient", "description": "(§1) Resveratrol, quercetin and naltrexone were tested in vitro using 100-microliter assay solutions with (A) a control subject platelets and (B) a POAG subject platelets. A marked reduction in SAPs at 1 μM resveratrol, 1 μM quercetin, 1 μM naltrexone in both the control subject platelets and the POAG patient's platelets was observed, representing a synergistic decrease as compared to the compounds alone."}, "POAG subject platelets": {"test_system": "POAG subject platelets", "assay": "SAP levels at varying doses of R, Q, N alone or in combination, POAG subject", "assay_type": "cell-based, human", "details": "POAG patient", "description": "as §1"}}}
{"molecule": "CC(=O)Oc1ccccc1C(=O)O", "note": "[Aspirin]", "values": [{"measurement": "Thrombin % Decrease", "setting": "thrombin production; 100 μM, Alzheimer's (n = 6)", "value": "−75.46", "unit": "%"}, {"measurement": "Thrombin % Decrease", "setting": "thrombin production; 100 μM, Control (n = 6)", "value": "−76.05", "unit": "%"}, {"measurement": "Thrombin % Decrease", "setting": "thrombin production; 100 μM, POAG (n = 6)", "value": "−104.39", "unit": "%"}, {"measurement": "SAP % Decrease", "setting": "SAPs; 100 μM, Alzheimer's (n = 6)", "value": "−17.32", "unit": "%"}, {"measurement": "SAP % Decrease", "setting": "SAPs; 100 μM, Control (n = 6)", "value": "−17.00", "unit": "%"}, {"measurement": "SAP % Decrease", "setting": "SAPs; 100 μM, POAG (n = 6)", "value": "−26.69", "unit": "%"}]}
{"molecule": "CC(C)Cc1ccc(C(C)C(=O)O)cc1", "note": "(stereo not drawn) [Ibuprofen]", "values": [{"measurement": "Thrombin % Decrease", "setting": "thrombin production; 100 μM, Alzheimer's (n = 6)", "value": "−95.08", "unit": "%"}, {"measurement": "Thrombin % Decrease", "setting": "thrombin production; 100 μM, Control (n = 6)", "value": "−106.45", "unit": "%"}, {"measurement": "Thrombin % Decrease", "setting": "thrombin production; 100 μM, POAG (n = 6)", "value": "−101.37", "unit": "%"}, {"measurement": "SAP % Decrease", "setting": "SAPs; 100 μM, Alzheimer's (n = 6)", "value": "−15.30", "unit": "%"}, {"measurement": "SAP % Decrease", "setting": "SAPs; 100 μM, Control (n = 6)", "value": "−31.40", "unit": "%"}, {"measurement": "SAP % Decrease", "setting": "SAPs; 100 μM, POAG (n = 6)", "value": "−16.84", "unit": "%"}]}
{"molecule": "O=C1CC[C@@]2(O)[C@H]3Cc4ccc(O)c5c4[C@@]2(CCN3CC2CC2)[C@H]1O5", "note": "[Naltrexone, 17-(cyclopropylmethyl)-4,5α-epoxy-3,14-dihydroxymorphinan-6-one]", "values": [{"measurement": "Bioavailability", "setting": "[1]", "value": 33, "unit": "%^3"}, {"measurement": "% Reduction in SAPs", "setting": "[2]", "value": 52.2, "unit": "%"}, {"measurement": "% SAPs", "setting": "[2]", "value": 47.8, "unit": "%"}, {"measurement": "SAP %", "setting": "[3]; R/Q/N 0/0/1 uM", "value": 30.80, "unit": "%"}, {"measurement": "SAP % Change", "setting": "[3]; R/Q/N 0/0/1 uM", "value": "−15.13", "unit": "%"}, {"measurement": "SAP %", "setting": "[3]; R/Q/N 0/0/10 uM", "value": 20.77, "unit": "%"}, {"measurement": "SAP % Change", "setting": "[3]; R/Q/N 0/0/10 uM", "value": "−42.77", "unit": "%"}, {"measurement": "SAP %", "setting": "[3]; R/Q/N 0/0/50 uM", "value": 18.03, "unit": "%"}, {"measurement": "SAP % Change", "setting": "[3]; R/Q/N 0/0/50 uM", "value": "−50.32", "unit": "%"}, {"measurement": "SAP %", "setting": "POAG subject platelets; R/Q/N 0/0/1 uM", "value": 44.27, "unit": "%"}, {"measurement": "SAP % Change", "setting": "POAG subject platelets; R/Q/N 0/0/1 uM", "value": "−22.17", "unit": "%"}, {"measurement": "SAP %", "setting": "POAG subject platelets; R/Q/N 0/0/10 uM", "value": 40.84, "unit": "%"}, {"measurement": "SAP % Change", "setting": "POAG subject platelets; R/Q/N 0/0/10 uM", "value": "−28.20", "unit": "%"}, {"measurement": "SAP %", "setting": "POAG subject platelets; R/Q/N 0/0/50 uM", "value": 38.93, "unit": "%"}, {"measurement": "SAP % Change", "setting": "POAG subject platelets; R/Q/N 0/0/50 uM", "value": "−31.56", "unit": "%"}]}
{"molecule": "O=c1c(O)c(-c2ccc(O)c(O)c2)oc2cc(O)cc(O)c12", "note": "[Quercetin, 3,3′,4′5,7-pentahydroxy-2-phenylchromen-4-one]", "values": [{"measurement": "Bioavailability", "setting": "[1]", "value": 11, "unit": "%^2"}, {"measurement": "SAP %", "setting": "[3]; R/Q/N 0/1/0 uM", "value": 30.36, "unit": "%"}, {"measurement": "SAP % Change", "setting": "[3]; R/Q/N 0/1/0 uM", "value": "−16.34", "unit": "%"}, {"measurement": "SAP %", "setting": "[3]; R/Q/N 0/5/0 uM", "value": 30.53, "unit": "%"}, {"measurement": "SAP % Change", "setting": "[3]; R/Q/N 0/5/0 uM", "value": "−15.87", "unit": "%"}, {"measurement": "SAP %", "setting": "[3]; R/Q/N 0/10/0 uM", "value": 21.47, "unit": "%"}, {"measurement": "SAP % Change", "setting": "[3]; R/Q/N 0/10/0 uM", "value": "−40.84", "unit": "%"}, {"measurement": "SAP %", "setting": "POAG subject platelets; R/Q/N 0/1/0 uM", "value": 49.18, "unit": "%"}, {"measurement": "SAP % Change", "setting": "POAG subject platelets; R/Q/N 0/1/0 uM", "value": "−13.54", "unit": "%"}, {"measurement": "SAP %", "setting": "POAG subject platelets; R/Q/N 0/5/0 uM", "value": 48.25, "unit": "%"}, {"measurement": "SAP % Change", "setting": "POAG subject platelets; R/Q/N 0/5/0 uM", "value": "−15.17", "unit": "%"}, {"measurement": "SAP %", "setting": "POAG subject platelets; R/Q/N 0/10/0 uM", "value": 43.27, "unit": "%"}, {"measurement": "SAP % Change", "setting": "POAG subject platelets; R/Q/N 0/10/0 uM", "value": "−23.93", "unit": "%"}]}
{"molecule": "Oc1ccc(/C=C/c2cc(O)cc(O)c2)cc1", "note": "[Resveratrol, 3,5,4′-trihydroxy-trans-stilbene]", "values": [{"measurement": "Half-life", "setting": "[1]; in vivo", "value": "1 to 3", "unit": "h"}, {"measurement": "Bioavailability", "setting": "[1]", "value": 5, "unit": "%^1"}, {"measurement": "SAP %", "setting": "[3]; R/Q/N 1/0/0 uM", "value": 32.20, "unit": "%"}, {"measurement": "SAP % Change", "setting": "[3]; R/Q/N 1/0/0 uM", "value": "−11.27", "unit": "%"}, {"measurement": "SAP %", "setting": "[3]; R/Q/N 5/0/0 uM", "value": 30.98, "unit": "%"}, {"measurement": "SAP % Change", "setting": "[3]; R/Q/N 5/0/0 uM", "value": "−14.63", "unit": "%"}, {"measurement": "SAP %", "setting": "[3]; R/Q/N 10/0/0 uM", "value": 30.24, "unit": "%"}, {"measurement": "SAP % Change", "setting": "[3]; R/Q/N 10/0/0 uM", "value": "−16.67", "unit": "%"}, {"measurement": "SAP %", "setting": "POAG subject platelets; R/Q/N 1/0/0 uM", "value": 53.30, "unit": "%"}, {"measurement": "SAP % Change", "setting": "POAG subject platelets; R/Q/N 1/0/0 uM", "value": "−6.29", "unit": "%"}, {"measurement": "SAP %", "setting": "POAG subject platelets; R/Q/N 5/0/0 uM", "value": 53.78, "unit": "%"}, {"measurement": "SAP % Change", "setting": "POAG subject platelets; R/Q/N 5/0/0 uM", "value": "−5.45", "unit": "%"}, {"measurement": "SAP %", "setting": "POAG subject platelets; R/Q/N 10/0/0 uM", "value": 43.53, "unit": "%"}, {"measurement": "SAP % Change", "setting": "POAG subject platelets; R/Q/N 10/0/0 uM", "value": "−23.47", "unit": "%"}]}
{"molecule": "O=C(NC[C@H]1CN(c2ccc(N3CCOCC3=O)cc2)C(=O)O1)c1ccc(Cl)s1", "note": "[Rivaroxaban]", "values": [{"measurement": "Thrombin % Decrease", "setting": "thrombin production; 1 μM, Alzheimer's (n = 6)", "value": "−186.56", "unit": "%"}, {"measurement": "Thrombin % Decrease", "setting": "thrombin production; 1 μM, Control (n = 6)", "value": "−183.06", "unit": "%"}, {"measurement": "Thrombin % Decrease", "setting": "thrombin production; 1 μM, POAG (n = 6)", "value": "−184.65", "unit": "%"}, {"measurement": "SAP % Decrease", "setting": "SAPs; 1 μM, Alzheimer's (n = 6)", "value": "−15.63", "unit": "%"}, {"measurement": "SAP % Decrease", "setting": "SAPs; 1 μM, Control (n = 6)", "value": "−23.38", "unit": "%"}, {"measurement": "SAP % Decrease", "setting": "SAPs; 1 μM, POAG (n = 6)", "value": "−48.73", "unit": "%"}]}
{"molecule": "Dabigatran", "values": [{"measurement": "Thrombin % Decrease", "setting": "thrombin production; 100 μM, Alzheimer's (n = 6)", "value": "−109.55", "unit": "%"}, {"measurement": "Thrombin % Decrease", "setting": "thrombin production; 100 μM, Control (n = 6)", "value": "−101.97", "unit": "%"}, {"measurement": "Thrombin % Decrease", "setting": "thrombin production; 100 μM, POAG (n = 6)", "value": "−100.45", "unit": "%"}, {"measurement": "SAP % Decrease", "setting": "SAPs; 100 μM, Alzheimer's (n = 6)", "value": "−8.09", "unit": "%"}, {"measurement": "SAP % Decrease", "setting": "SAPs; 100 μM, Control (n = 6)", "value": "−0.16", "unit": "%"}, {"measurement": "SAP % Decrease", "setting": "SAPs; 100 μM, POAG (n = 6)", "value": "−11.21", "unit": "%"}]}
